{"source": "paper PMC7714403", "about": "(JCI Insight, 2020)", "key": {"dermal fibroblasts": {"test_system": "dermal fibroblasts", "assay": "MTT viability assay, normal cells", "type": "cell-based, human", "conditions": "2 donors, 72 h", "description": "Cell viability of primary samples\nHS5-GFP human bone marrow stromal cells were plated and cultured for 72 hours to near confluence.\nMOLM13 cells were then seeded onto HS5-GFP cells to establish a co-culture. Twenty-four hours later, cells were treated with increasing concentrations of drug for an additional 72 hours. MOLM13 and HS5-GFP cells were then separated and MTT assay s were performed for cell viability assessment of each cell population.\nFor murine or human primary AML cells, 100,000 cells/well were plated in a 96-well plate and treated with increasing concentrations of drug. Cell viability, via trypan blue, was measured every 24 hours. If the viability fell below 50% or at 72 hours of treatment, whichever came earlier, cell viability of each plate was measured via CellTiter-Glo. Primary human AML cells were obtained from the OSUCCC Leukemia Tissue Bank Shared […]\nFor primary human fibroblasts, cells were plated at 10,000 cells/well in a 96-well plate and cultured for 24 hours. After 24 hours, cells were treated with drug for 72 hours. A MTT assay was performed to assess cell […]\nPrimary AML samples were analyzed by targeted gene sequencing of 80 genes, as previously described (1). Samples were pooled and analyzed on a MiSeq system using the Illuminia MiSeq Reagent Kit v3. Ill umina Isis Banded Smith Waterman aligner and hg19 genome were used to align the sequences. […]"}, "AKT1, AKT3": {"test_system": "AKT1, AKT3", "assay": "KiNativ, OCI cells live cell", "type": "cell-based, human"}, "[1]": {"test_system": "native kinases in MOLM13 cells", "assay": "KiNativ in situ kinase profiling, MOLM13 cells", "type": "cell-based, human", "conditions": "100 nM, compared with DMSO", "description": "Samples were analyzed by KiNativ in situ kinase profiling by ActivX Biosciences."}, "HCK": {"target": "HCK (Homo sapiens, UniProt P08631)", "assay": "KiNativ, OCI cells live cell", "type": "cell-based", "conditions": "2 h, labeling site Activation Loop, peptide […]"}, "FLT3 ITD/D835V": {"target": "FLT3 ITD/D835V (Homo sapiens, UniProt P36888, D835V/ITD)", "assay": "KdELECT binding assay"}, "FLT3 D835V": {"target": "T1, FLT3 D835V (Homo sapiens, UniProt P36888, D835V)", "T1 construct": "purchased Eurofins DiscoverX", "assay": "KdELECT binding assay"}, "CK2a1": {"target": "CK2a1 (Homo sapiens, UniProt P68400)", "sequence (P68400 whole entry, the tested form may be a part)": "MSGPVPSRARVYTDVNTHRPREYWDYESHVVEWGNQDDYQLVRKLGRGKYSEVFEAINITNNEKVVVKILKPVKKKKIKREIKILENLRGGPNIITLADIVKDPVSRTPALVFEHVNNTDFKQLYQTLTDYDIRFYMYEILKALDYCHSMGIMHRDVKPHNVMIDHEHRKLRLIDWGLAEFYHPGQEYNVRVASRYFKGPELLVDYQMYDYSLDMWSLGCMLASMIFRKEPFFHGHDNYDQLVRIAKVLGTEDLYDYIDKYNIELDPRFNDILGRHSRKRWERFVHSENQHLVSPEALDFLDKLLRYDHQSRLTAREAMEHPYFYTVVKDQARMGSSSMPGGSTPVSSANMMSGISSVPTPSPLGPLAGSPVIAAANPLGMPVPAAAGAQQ", "assay": "KiNativ, OCI cells live cell", "type": "cell-based", "conditions": "2 h, labeling site Protein Kinase Domain, peptide […]"}, "PIP4K2B": {"target": "PIP4K2B (Homo sapiens, UniProt P78356)", "sequence (P78356 whole entry)": "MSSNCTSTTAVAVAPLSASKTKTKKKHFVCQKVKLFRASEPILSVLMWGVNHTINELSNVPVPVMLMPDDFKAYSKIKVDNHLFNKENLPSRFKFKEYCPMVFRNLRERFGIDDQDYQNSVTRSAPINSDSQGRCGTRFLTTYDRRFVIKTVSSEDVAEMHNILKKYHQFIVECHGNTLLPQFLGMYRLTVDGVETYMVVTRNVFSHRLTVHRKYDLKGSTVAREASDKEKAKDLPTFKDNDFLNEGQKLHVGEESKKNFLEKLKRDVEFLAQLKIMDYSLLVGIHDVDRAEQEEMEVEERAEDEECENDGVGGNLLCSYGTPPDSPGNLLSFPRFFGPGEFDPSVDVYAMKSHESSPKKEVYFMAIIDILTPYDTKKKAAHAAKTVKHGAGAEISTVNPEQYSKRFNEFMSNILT", "assay": "KiNativ, OCI cells live cell", "type": "cell-based", "conditions": "2 h, labeling site ATP, peptide […]"}, "PI4KB": {"target": "PI4KB (Homo sapiens, UniProt Q9UBF8)", "sequence (Q9UBF8 whole entry)": "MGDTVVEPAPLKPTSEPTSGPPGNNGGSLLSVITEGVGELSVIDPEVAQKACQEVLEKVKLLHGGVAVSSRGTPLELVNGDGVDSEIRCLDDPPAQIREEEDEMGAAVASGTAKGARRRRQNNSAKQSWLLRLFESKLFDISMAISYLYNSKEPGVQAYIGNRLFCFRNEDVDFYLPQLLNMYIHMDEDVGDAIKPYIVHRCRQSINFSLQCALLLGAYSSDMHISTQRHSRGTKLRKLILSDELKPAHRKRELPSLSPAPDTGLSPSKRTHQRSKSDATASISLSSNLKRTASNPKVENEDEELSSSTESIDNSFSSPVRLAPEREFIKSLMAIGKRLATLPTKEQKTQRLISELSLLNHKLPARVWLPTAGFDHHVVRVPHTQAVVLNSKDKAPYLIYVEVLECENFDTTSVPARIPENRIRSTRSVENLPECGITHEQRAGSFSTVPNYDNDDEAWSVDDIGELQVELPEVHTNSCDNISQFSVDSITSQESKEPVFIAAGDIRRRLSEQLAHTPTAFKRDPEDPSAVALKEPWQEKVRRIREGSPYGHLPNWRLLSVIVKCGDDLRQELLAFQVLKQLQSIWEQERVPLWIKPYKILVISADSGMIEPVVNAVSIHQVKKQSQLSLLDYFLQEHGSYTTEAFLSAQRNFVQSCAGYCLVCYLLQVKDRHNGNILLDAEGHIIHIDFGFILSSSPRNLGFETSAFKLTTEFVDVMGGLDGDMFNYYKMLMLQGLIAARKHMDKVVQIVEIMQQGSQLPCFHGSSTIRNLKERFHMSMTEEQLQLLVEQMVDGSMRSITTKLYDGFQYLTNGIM", "assay": "KiNativ, OCI cells live cell", "type": "cell-based", "conditions": "2 h, labeling site ATP"}, "MST4, YSK1": {"test_system": "MST4, YSK1", "assay": "KiNativ, OCI cells live cell", "type": "cell-based, human", "conditions": "labeling site Lys2, peptide DIKAANVLLSEQGDVK"}, "ALK": {"target": "T2, ALK (Homo sapiens, UniProt Q9UM73)", "T2 construct": "purchased Eurofins DiscoverX", "T2 sequence (Q9UM73 19-1620)": "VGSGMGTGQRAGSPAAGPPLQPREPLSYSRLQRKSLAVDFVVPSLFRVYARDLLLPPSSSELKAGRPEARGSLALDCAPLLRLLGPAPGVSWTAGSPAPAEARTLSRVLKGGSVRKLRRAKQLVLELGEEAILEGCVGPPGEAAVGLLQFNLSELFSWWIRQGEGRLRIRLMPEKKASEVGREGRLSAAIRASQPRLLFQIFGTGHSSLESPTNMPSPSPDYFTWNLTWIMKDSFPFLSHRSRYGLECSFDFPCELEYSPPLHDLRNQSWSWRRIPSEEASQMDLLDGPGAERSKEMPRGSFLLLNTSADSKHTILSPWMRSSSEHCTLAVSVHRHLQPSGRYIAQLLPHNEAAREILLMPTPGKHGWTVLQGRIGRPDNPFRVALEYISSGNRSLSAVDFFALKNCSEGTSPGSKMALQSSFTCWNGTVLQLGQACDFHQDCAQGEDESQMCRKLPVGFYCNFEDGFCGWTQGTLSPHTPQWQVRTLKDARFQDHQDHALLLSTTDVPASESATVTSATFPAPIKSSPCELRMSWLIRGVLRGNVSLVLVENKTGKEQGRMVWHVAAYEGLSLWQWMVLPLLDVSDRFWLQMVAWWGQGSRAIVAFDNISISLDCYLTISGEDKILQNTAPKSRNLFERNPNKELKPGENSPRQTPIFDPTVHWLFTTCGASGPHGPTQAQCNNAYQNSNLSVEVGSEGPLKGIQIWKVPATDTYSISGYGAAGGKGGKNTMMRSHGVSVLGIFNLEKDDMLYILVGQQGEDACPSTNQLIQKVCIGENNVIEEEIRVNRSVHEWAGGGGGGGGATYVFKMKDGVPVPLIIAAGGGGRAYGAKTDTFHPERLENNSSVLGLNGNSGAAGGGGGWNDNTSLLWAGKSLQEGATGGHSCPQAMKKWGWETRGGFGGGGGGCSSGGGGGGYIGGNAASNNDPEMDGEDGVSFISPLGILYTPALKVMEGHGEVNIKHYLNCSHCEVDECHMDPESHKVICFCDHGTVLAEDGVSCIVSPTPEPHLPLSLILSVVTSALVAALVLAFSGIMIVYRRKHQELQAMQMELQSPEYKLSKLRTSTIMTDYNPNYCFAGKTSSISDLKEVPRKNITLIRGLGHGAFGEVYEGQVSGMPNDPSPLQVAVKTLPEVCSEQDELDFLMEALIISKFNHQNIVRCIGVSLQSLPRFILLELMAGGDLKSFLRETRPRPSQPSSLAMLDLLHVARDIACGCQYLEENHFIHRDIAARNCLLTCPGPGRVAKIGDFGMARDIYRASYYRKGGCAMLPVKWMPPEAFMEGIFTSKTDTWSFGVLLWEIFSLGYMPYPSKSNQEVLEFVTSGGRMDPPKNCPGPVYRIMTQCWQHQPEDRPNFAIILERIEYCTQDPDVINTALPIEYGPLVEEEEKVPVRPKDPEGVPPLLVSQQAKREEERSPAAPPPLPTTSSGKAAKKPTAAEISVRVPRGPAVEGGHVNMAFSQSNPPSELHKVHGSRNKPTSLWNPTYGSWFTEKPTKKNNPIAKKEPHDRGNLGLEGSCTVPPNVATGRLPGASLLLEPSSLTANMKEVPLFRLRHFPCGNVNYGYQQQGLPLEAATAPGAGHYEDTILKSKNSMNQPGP", "assay": "KdELECT binding assay"}, "PCTAIRE2, PCTAIRE3": {"test_system": "PCTAIRE2, PCTAIRE3", "assay": "KiNativ, OCI cells live cell", "type": "cell-based, human", "conditions": "labeling site Lys1, peptide SKLTENLVALKEIR"}, "JAK2 domain2": {"target": "T3, JAK2 domain2 (Homo sapiens, UniProt O60674)", "T3 construct": "JAK2 domain2", "assay": "KiNativ, OCI cells live cell", "type": "cell-based", "conditions": "labeling site Activation Loop, peptide IGDFGLTKVLPQDKEYYK"}, "eEF2K": {"target": "eEF2K (Homo sapiens, UniProt O00418)", "sequence (O00418 whole entry)": "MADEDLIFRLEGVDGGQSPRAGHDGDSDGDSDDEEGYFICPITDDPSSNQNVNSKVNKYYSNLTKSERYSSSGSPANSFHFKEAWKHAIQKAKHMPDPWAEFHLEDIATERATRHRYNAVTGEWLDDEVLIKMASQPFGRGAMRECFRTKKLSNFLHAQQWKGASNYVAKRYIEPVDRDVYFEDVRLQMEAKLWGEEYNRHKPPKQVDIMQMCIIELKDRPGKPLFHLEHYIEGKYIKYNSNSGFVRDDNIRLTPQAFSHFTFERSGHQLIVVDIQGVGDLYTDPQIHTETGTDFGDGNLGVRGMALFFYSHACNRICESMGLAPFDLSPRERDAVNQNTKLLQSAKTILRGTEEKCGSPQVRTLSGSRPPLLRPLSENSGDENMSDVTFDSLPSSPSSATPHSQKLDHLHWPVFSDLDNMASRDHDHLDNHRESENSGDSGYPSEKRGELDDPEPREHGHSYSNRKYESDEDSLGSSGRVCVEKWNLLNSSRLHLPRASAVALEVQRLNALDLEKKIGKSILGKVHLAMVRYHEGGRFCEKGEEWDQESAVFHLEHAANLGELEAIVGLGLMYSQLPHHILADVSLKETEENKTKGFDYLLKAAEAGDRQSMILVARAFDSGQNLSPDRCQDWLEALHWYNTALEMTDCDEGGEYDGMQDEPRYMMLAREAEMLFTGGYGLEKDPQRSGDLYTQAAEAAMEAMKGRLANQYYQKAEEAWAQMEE", "assay": "KiNativ, OCI cells live cell", "type": "cell-based", "conditions": "2 h, labeling site ATP, peptide […]"}, "CHEK1": {"target": "T4, CHEK1 (Homo sapiens, UniProt O14757)", "T4 construct": "purchased Eurofins DiscoverX", "assay": "KdELECT binding assay"}, "PIP4K2A": {"target": "PIP4K2A (Homo sapiens, UniProt P48426)", "assay": "KiNativ, OCI cells live cell", "type": "cell-based", "conditions": "2 h, labeling site ATP, peptide […]"}, "CK1g3": {"target": "CK1g3 (Homo sapiens, UniProt Q9Y6M4)", "assay": "KiNativ, OCI cells live cell", "type": "cell-based", "conditions": "labeling site Lys2, peptide DVKPENFLIGRPGNK"}, "PLK4": {"target": "T5, PLK4 (Homo sapiens, UniProt O00444)", "T5 construct": "purchased Eurofins DiscoverX", "assay": "KdELECT binding assay"}, "ZAK": {"target": "ZAK (Homo sapiens, UniProt Q9NYL2)", "assay": "KiNativ, OCI cells live cell", "type": "cell-based", "conditions": "2 h, labeling site Lys1, peptide […]"}, "PCTAIRE1, PCTAIRE3": {"test_system": "PCTAIRE1, PCTAIRE3", "assay": "KiNativ, OCI cells live cell", "type": "cell-based, human", "conditions": "labeling site Lys2, peptide DLKPQNLLINER"}, "YANK3": {"target": "YANK3 (Homo sapiens, UniProt Q86UX6)", "sequence (Q86UX6 whole entry)": "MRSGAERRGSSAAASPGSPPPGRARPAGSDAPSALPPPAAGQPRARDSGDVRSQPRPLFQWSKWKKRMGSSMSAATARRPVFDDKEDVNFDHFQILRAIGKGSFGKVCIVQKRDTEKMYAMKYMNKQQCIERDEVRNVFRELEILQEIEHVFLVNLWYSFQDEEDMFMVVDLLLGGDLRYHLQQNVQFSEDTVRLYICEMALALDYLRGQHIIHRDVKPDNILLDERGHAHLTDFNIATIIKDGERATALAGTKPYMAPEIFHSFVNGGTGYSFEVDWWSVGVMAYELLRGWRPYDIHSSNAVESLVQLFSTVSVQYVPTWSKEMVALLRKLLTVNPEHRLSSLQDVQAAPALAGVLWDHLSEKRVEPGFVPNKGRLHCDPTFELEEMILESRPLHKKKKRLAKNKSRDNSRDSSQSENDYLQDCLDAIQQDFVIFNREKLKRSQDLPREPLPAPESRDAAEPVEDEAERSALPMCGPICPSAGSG", "assay": "KiNativ, OCI cells live cell", "type": "cell-based", "conditions": "2 h, labeling site Lys2, peptide […]"}, "JNK1, JNK2, JNK3": {"test_system": "JNK1, JNK2, JNK3", "assay": "KiNativ, OCI cells live cell", "type": "cell-based, human", "conditions": "labeling site Lys2, peptide DLKPSNIVVK"}, "PLK1": {"target": "PLK1 (Homo sapiens, UniProt P53350)", "sequence (P53350 whole entry)": "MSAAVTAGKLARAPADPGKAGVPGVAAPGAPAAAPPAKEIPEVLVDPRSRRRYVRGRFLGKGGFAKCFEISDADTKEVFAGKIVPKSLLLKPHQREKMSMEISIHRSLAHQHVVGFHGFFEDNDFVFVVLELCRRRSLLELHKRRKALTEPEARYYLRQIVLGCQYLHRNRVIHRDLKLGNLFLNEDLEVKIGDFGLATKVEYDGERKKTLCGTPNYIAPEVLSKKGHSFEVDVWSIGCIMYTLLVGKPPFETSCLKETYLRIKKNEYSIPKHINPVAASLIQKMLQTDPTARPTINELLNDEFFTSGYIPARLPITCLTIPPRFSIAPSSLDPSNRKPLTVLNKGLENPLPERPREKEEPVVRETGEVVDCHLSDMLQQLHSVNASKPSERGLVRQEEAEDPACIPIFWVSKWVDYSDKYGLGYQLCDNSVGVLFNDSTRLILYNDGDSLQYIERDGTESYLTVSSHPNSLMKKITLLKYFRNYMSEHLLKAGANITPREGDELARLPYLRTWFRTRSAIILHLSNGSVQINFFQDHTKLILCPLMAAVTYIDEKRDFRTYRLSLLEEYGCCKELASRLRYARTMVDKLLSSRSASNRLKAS", "assay": "KiNativ, OCI cells live cell", "type": "cell-based", "conditions": "2 h"}, "BTK": {"target": "BTK (Homo sapiens, UniProt Q06187)", "assay": "KdELECT binding assay", "parameters": "purchased Eurofins DiscoverX"}}, "data": [{"molecule": "CN1CCN(Cc2ccc(Nc3ncc(Cl)c(Nc4ccccc4S(=O)(=O)N(C)C)n3)cc2)CC1", "note": "[TP-0903]", "values": [{"measurement": "Concentrations inhibiting viability of fibroblasts", "setting": "dermal fibroblasts", "result": "≥ 250", "unit": "nM"}, {"measurement": "Inhibition", "setting": "AKT1, AKT3; labeling site Lys1, peptide YYAMKILK", "result": -15.9, "unit": "%"}, {"measurement": "Inhibition", "setting": "AKT1, AKT3; labeling site Lys2, peptide DLKLENLMLDKDGHIK", "result": -30.0, "unit": "%"}, {"measurement": "Inhibition of AURKA/B/C, CDK6/7, BTK, and JAK1", "setting": "[1]", "result": "moderate to strong inhibition"}, {"measurement": "inhibition at 0.1 µM", "setting": "HCK", "result": -3.8, "unit": "%"}, {"measurement": "Kd", "setting": "FLT3 ITD/D835V", "result": 0.79, "unit": "nM"}, {"measurement": "Kd", "setting": "FLT3 D835V", "result": 2.1, "unit": "nM"}, {"measurement": "inhibition at 0.1 µM", "setting": "CK2a1", "result": -50.8, "unit": "%"}, {"measurement": "inhibition at 0.1 µM", "setting": "PIP4K2B", "result": -24.4, "unit": "%"}, {"measurement": "inhibition at 0.1 µM", "setting": "PI4KB; peptide LLSVIVKCGDDLRQELLAFQVLK", "result": -13.1, "unit": "%"}, {"measurement": "inhibition at 0.1 µM", "setting": "PI4KB; peptide VPHTQAVVLNSKDK", "result": -23.3, "unit": "%"}, {"measurement": "Inhibition", "setting": "MST4, YSK1", "result": 25.0, "unit": "%"}, {"measurement": "Kd", "setting": "ALK", "result": "< 5", "unit": "nM"}, {"measurement": "Inhibition", "setting": "PCTAIRE2, PCTAIRE3", "result": 89.6, "unit": "%"}, {"measurement": "Inhibition", "setting": "JAK2 domain2", "result": 36.2, "unit": "%"}, {"measurement": "inhibition at 0.1 µM", "setting": "eEF2K", "result": 12.4, "unit": "%"}, {"measurement": "Kd", "setting": "CHEK1", "result": 24, "unit": "nM"}, {"measurement": "inhibition at 0.1 µM", "setting": "PIP4K2A", "result": -17.8, "unit": "%"}, {"measurement": "Inhibition", "setting": "CK1g3", "result": -14.0, "unit": "%"}, {"measurement": "Kd", "setting": "PLK4", "result": "< 5", "unit": "nM"}, {"measurement": "inhibition at 0.1 µM", "setting": "ZAK", "result": 5.3, "unit": "%"}, {"measurement": "Inhibition", "setting": "PCTAIRE1, PCTAIRE3", "result": 79.0, "unit": "%"}, {"measurement": "inhibition at 0.1 µM", "setting": "YANK3", "result": 8.4, "unit": "%"}, {"measurement": "Inhibition", "setting": "JNK1, JNK2, JNK3", "result": 14.0, "unit": "%"}, {"measurement": "inhibition at 0.1 µM", "setting": "PLK1; labeling site Lys1, peptide CFEISDADTKEVFAGKIVPK", "result": -5, "unit": "%"}, {"measurement": "inhibition at 0.1 µM", "setting": "PLK1; labeling site Lys2, peptide DLKLGNLFLNEDLEVK", "result": -4.3, "unit": "%"}, {"measurement": "Kd", "setting": "BTK", "result": 13, "unit": "nM"}]}]}
